Measured values reported in ChEMBL document CHEMBL5038581, “Design, synthesis, and biological evaluation of novel dual inhibitors targeting lysine specific demethylase 1 (LSD1) and histone deacetylases (HDAC) for treatment of gastric cancer” (Eur J Med Chem, 2021).
One block for each compound: values may come before it. Calls of active or inactive are those of the source. No cut-off for these calls is given here.

What was measured:
SNU1 = assay: cells; conditions: Homo sapiens, SNU1, 72 h
MKN-1 = assay: cells; conditions: Homo sapiens, MKN-1, 72 h
MGC-803 [1] = assay: Inhibition of cell migration in human MGC-803 cells 0.2 to 0.6 uM up to 24 hrs by Hoechst 33258 staining based transwell migration assay; assay type: functional; conditions: dose 0.2-0.6 µM, time hrs <=24
MKN-45 = assay: cells; conditions: Homo sapiens, MKN-45, 72 h
BGC-823 = assay: cells; conditions: Homo sapiens, BGC-823, 72 h
MGC-803 [2] = assay: Inhibition of cell migration in human MGC-803 cells assessed as upregulation of ZO-1 at 0.2 to 0.6 uM for 48 hrs by western blot analysis; assay type: functional, cell-based; conditions: dose 0.2-0.6 µM
MGC-803 [3] = assay: Inhibition of cell migration in human MGC-803 cells assessed as downregulation of Vimentin at 0.2 to 0.6 uM for 48 hrs by western blot analysis; assay type: functional, cell-based; conditions: dose 0.2-0.6 µM
[4] = biological target: Amine oxidase [flavin-containing] B (Homo sapiens, UniProt P27338); assay: Inhibition of human recombinant MAO-B by multimode plate reader assay
Amine oxidase [flavin-containing] B, sequence (P27338 whole entry): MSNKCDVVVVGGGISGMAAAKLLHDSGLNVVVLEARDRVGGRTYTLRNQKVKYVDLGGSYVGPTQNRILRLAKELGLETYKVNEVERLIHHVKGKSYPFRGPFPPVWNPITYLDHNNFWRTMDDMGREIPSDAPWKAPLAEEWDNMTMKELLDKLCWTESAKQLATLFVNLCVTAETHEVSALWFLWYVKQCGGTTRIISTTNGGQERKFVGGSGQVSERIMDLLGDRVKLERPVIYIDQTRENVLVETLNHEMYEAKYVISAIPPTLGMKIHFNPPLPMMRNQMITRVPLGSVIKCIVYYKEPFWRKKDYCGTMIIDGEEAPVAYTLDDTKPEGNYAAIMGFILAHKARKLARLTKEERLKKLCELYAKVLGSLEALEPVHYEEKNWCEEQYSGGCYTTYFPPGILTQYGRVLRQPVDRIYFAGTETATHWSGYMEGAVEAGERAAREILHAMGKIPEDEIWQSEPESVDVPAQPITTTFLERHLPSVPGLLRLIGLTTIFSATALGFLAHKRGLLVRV

MGC-803 [5] = assay: Induction of apoptosis in human MGC-803 cells assessed as apoptotic cells at 5 uM incubated for 48 hrs by annexin V-FITC and PI staining based flowcytometry analysis (Rvb =4.3 %); assay type: functional
NCI-N87 = assay: cells; conditions: Homo sapiens, NCI-N87, 72 h
Histone deacetylase 2 = Histone deacetylase 2 (Homo sapiens, UniProt Q92769)
Histone deacetylase 2, sequence (Q92769 whole entry): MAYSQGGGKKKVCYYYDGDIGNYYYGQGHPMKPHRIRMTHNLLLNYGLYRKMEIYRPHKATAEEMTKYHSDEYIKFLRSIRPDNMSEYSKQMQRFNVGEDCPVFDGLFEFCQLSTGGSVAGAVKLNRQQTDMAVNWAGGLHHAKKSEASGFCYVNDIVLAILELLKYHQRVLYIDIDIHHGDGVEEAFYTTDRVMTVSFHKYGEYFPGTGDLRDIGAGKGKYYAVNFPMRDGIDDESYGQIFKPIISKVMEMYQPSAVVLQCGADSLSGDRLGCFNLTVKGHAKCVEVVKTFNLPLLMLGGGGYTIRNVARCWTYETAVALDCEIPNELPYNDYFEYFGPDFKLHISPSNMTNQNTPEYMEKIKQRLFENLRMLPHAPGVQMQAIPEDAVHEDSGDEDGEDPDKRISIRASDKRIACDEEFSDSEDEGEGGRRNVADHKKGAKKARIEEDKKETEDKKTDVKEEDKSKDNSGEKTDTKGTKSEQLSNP

MGC-803 [6] = assay: Inhibition of cell migration in human MGC-803 cells assessed as upregulation of E-cadherin at 0.2 to 0.6 uM for 48 hrs by western blot analysis; assay type: functional, cell-based; conditions: dose 0.2-0.6 µM
AGS = assay: cells; conditions: Homo sapiens, 72 h
MGC-803 [7] = assay: Inhibition of colony formation in human MGC-803 cells assessed as reduction in colony formation at 0.2 to 0.6 uM measured after 7 days by crystal violet staining based microscopic analysis; assay type: functional, cell-based; conditions: dose 0.2-0.6 µM, time 7.0 day
[8] = biological target: T1, Protein deacetylase HDAC6 (Homo sapiens, UniProt Q9UBN7); assay: Inhibition of HDAC6 (unknown origin) using Ac-peptide as substrate preincubated for 15 mins followed by substrate addition by fluorescence assay
T1 sequence (Q9UBN7 whole entry): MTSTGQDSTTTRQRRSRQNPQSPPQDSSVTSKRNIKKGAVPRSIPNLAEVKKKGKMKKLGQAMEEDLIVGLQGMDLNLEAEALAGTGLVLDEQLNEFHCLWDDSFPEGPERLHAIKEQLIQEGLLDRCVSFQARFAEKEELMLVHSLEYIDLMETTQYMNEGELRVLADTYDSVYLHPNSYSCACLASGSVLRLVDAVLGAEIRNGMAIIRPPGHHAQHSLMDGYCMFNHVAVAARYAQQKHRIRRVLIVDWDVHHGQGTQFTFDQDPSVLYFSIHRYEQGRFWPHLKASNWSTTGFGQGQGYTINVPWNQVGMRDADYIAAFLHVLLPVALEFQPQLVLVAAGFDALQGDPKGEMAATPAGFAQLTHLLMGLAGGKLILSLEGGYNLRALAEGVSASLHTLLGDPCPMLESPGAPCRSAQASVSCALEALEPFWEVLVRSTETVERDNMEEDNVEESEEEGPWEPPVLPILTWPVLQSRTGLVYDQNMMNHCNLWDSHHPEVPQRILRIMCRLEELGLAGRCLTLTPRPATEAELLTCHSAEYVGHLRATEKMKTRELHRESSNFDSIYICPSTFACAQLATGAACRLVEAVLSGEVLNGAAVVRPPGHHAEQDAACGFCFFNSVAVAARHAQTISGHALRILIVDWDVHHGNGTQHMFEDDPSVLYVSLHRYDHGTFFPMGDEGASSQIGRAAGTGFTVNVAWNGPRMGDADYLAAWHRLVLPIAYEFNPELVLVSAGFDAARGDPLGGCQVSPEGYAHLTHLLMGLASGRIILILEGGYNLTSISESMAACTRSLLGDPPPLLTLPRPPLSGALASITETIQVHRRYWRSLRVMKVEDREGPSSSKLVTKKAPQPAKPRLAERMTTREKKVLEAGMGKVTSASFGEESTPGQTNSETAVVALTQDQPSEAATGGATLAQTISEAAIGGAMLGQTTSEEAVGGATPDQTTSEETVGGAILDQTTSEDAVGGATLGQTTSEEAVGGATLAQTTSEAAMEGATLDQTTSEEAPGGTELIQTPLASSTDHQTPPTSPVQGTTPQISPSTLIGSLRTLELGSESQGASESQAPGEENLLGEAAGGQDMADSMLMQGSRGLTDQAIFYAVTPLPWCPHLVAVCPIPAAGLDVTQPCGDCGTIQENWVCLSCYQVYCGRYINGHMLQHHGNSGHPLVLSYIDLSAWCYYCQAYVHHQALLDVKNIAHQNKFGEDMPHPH

MGC-803 [9] = assay: Inhibition of cell migration in human MGC-803 cells assessed as downregulation of Vimentin at 2 to 8 uM for 48 hrs by western blot analysis; assay type: functional, cell-based; conditions: dose 2-8 µM
MGC-803 [10] = assay: Inhibition of cell migration in human MGC-803 cells assessed as upregulation of ZO-1 at 2 to 8 uM for 48 hrs by western blot analysis; assay type: functional, cell-based; conditions: dose 2-8 µM
MGC-803 [11] = assay: Inhibition of colony formation in human MGC-803 cells assessed as reduction in colony formation at 4 to 8 uM measured after 7 days by crystal violet staining based microscopic analysis; assay type: functional, cell-based; conditions: dose 4-8 µM, time 7.0 day
MGC-803 [12] = assay: Inhibition of cell migration in human MGC-803 cells at 2 to 8 uM up to 24 hrs by wound healing assay; assay type: functional, cell-based; conditions: dose 2-8 µM, time hrs <=24
MGC-803 [13] = assay: Inhibition of cell migration in human MGC-803 cells assessed as upregulation of E-cadherin at 2 to 8 uM for 48 hrs by western blot analysis; assay type: functional, cell-based; conditions: dose 2-8 µM
MGC-803 [14] = assay: Inhibition of cell migration in human MGC-803 cells 4 to 8 uM up to 24 hrs by Hoechst 33258 staining based transwell migration assay; assay type: functional; conditions: dose 4-8 µM, time hrs <=24

- IC50 (SNU1): 1010 nM
- IC50 (MKN-1): 400 nM
- IC50 (MKN-45): 1160 nM
- IC50 (BGC-823): 1500 nM
- IC50 [4]: > 100000 nM
- IC50 (NCI-N87): 230 nM
- IC50 (Histone deacetylase 2): 404 nM
- IC50 (AGS): 1560 nM
- IC50 [8]: 15 nM
Structure (SMILES): Cc1ccc(-c2cc(/C=C/c3ccc(C(=O)NO)cc3)ccn2)c(F)c1
- inhibition (MGC-803 [1]): Dose-Dependent Effect
- Activity (MGC-803 [2]): Active
- Activity (MGC-803 [3]): Active
- Activity (MGC-803 [5]): 82.2%
- Activity (MGC-803 [6]): Active
- inhibition (MGC-803 [7]): Dose-Dependent Effect

- IC50 [4]: 69400 nM
- IC50 [8]: 47 nM
Structure (SMILES): O=C(NO)c1ccc(/C=C/c2ccnc(-c3ccccc3O)c2)cc1
- Activity (MGC-803 [9]): Active
- Activity (MGC-803 [5]): 71.9%
- Activity (MGC-803 [10]): Active
- Activity (MGC-803 [11]): Dose-Dependent Effect
- inhibition (MGC-803 [12]): Dose-Dependent Effect
- Activity (MGC-803 [13]): Active
- inhibition (MGC-803 [14]): Dose-Dependent Effect
